Experimental data published in patent publication US11065314B2, “Peptides and combination of peptides for use in immunotherapy against breast cancer and other cancers” (Immatics Biotechnologies GmbH, priority 2015, dated 2021).

Legend:
HLA-A*02:01 = HLA-A*02:01 (Homo sapiens, UniProt P04439, D140Y/D185E/D98H/E176V/E277Q/G131W/G231S/I119V/I121R/I166T/I218V/L300P/L318F/N151K/N90K/P208A/P217A/Q86G/Q94H/R138H/R169H/T345S); experiment: MHC binding assay: UV-ligand exchange with β2m ELISA; conditions: binding to HLA-A*02:01, UV-ligand exchange
From the text: Candidate peptides for T cell based therapies according to the present invention were further tested for their MHC binding capacity (affinity). The individual peptide-MHC complexes were produced by UV-ligand exchange, where a UV-sensitive peptide is cleaved upon UV-irradiation, and exchanged with the peptide of interest as analyzed. Only peptide candidates that can effectively bind and stabilize the peptide-receptive MHC molecules prevent dissociation of the MHC complexes. To determine the yield of the exchange reaction, an ELISA was performed based on the detection of the light chain (β2m) of stabilized MHC complexes. The assay was performed as generally described in Rodenko et al. (Rodenko et al., 2006).
96 well MAXISorp plates (NUNC) were coated over night with 2 ug/ml streptavidin in PBS at room temperature, washed 4× and blocked for 1 h at 37° C. in 2% BSA containing blocking buffer. Refolded HLA-A*02:01/MLA-001 monomers served as standards, covering the range of 15-500 ng/ml. Peptide-MHC monomers of the UV-exchange reaction were diluted 100-fold in blocking buffer. Samples were incubated for 1 h at 37° C., washed four times, incubated with 2 ug/ml HRP conjugated anti-β2m for 1 h at 37° C., washed again and detected with TMB solution that is stopped with […]. Absorption was measured at 450 nm. Candidate peptides that show a high exchange yield (preferably higher than 50%, most preferred higher than 75%) are generally preferred for a generation and production of antibodies or fragments thereof, and/or T cell receptors or fragments thereof, as they show sufficient avidity to the MHC molecules and prevent dissociation of the MHC complexes.

[1] = test system: CD8+ T cells of healthy HLA-A*02 donors; experiment: In vitro T-cell priming (aAPC with pMHC and anti-CD28), pMHC multimer readout; format: cell-based, human; conditions: for Wells positive [%]: HLA-A*02 restricted peptides, positive wells and donors among evaluable, Table 10B
From the text: In order to obtain information regarding the immunogenicity of the TUMAPs of the present invention, the inventors performed investigations using an in vitro T-cell priming assay based on repeated stimulations of CD8+ T cells with artificial antigen presenting cells (aAPCs) loaded with peptide/MHC complexes and anti-CD28 antibody.
In order to perform in vitro stimulations by artificial antigen presenting cells loaded with peptide-MHC complex (pMHC) and anti-CD28 antibody, the inventors first isolated CD8+ T cells from fresh HLA-A*02 leukapheresis products via positive selection using CD8 microbeads (Miltenyi Biotec, Bergisch-Gladbach, Germany) of healthy donors obtained from the University clinics Mannheim, Germany, after informed consent.
PBMCs and isolated CD8+ lymphocytes were incubated in T-cell medium (TCM) until use consisting of RPMI-Glutamax (Invitrogen, Karlsruhe, Germany) supplemented with 10% heat inactivated human AB serum (PAN-Biotech, Aidenbach, Germany), 100 U/ml Penicillin/100 μg/ml Streptomycin (Cambrex, Cologne, Germany), 1 mM sodium pyruvate (CC Pro, Oberdorla, Germany), 20 μg/ml Gentamycin (Cambrex). 2.5 ng/ml IL-7 (PromoCell, Heidelberg, Germany) and 10 U/ml IL-2 (Novartis Pharma, Nümberg, Germany) were also added to the TCM at this step.
Generation of pMHC/anti-CD28 coated beads, T-cell stimulations and readout was performed in a highly defined in vitro system using four different pMHC molecules per stimulation condition and 8 different pMHC molecules per readout condition.
The purified co-stimulatory mouse IgG2a anti human CD28 Ab 9.3 (Jung et al., 1987) was chemically biotinylated using Sulfo-N-hydroxysuccinimidobiotin as recommended by the manufacturer (Perbio, Bonn, Germany). Beads used were 5.6 μm diameter streptavidin coated polystyrene particles (Bangs Laboratories, Illinois, USA).
800.000 beads/200 μl were coated in 96-well plates in the presence of 4×12.5 ng different biotin-pMHC, washed and 600 ng biotin anti-CD28 were added subsequently in a volume of 200 μl. Stimulations were initiated in 96-well plates by co-incubating 1×10^6 CD8+ T cells with 2×10^5 washed coated beads in 200 μl TCM supplemented with 5 ng/ml IL-12 (PromoCell) for 3 days at 37° C. Half of the medium was then exchanged by fresh TCM supplemented with 80 U/ml IL-2 and incubating was continued for 4 days at 37° C. This stimulation cycle was performed for a total of three times. For the pMHC multimer readout using 8 different pMHC molecules per condition, a two-dimensional combinatorial coding approach was used as previously described (Andersen et al., 2012) with minor modifications encompassing coupling to 5 different fluorochromes. Finally, multimeric analyses were performed by staining the cells with Live/dead near IR dye (Invitrogen, Karlsruhe, Germany), CD8-FITC antibody clone SK1 (BD, Heidelberg, Germany) and fluorescent pMHC multimers. For analysis, a BD LSRII SORP cytometer equipped with appropriate lasers and filters was used. Peptide specific cells were calculated as percentage of total CD8+ cells. Evaluation of multimeric analysis was done using the FlowJo software (Tree Star, Oregon, USA). In vitro priming of specific multimer+CD8+ lymphocytes was detected by comparing to negative control stimulations.

| Sequence | Peptide Exchange (peptide exchange yield) (HLA-A*02:01) | Wells positive [%] [1] | wells (in vitro immunogenicity, positive wells) ([1]; HLA class I peptides, Table 10A) |
| --- | --- | --- | --- |
| ALAGSSPQV (listed as Homo sapiens) [SEQ ID NO: 2, HLA-A*02 peptide, source gene CNTD2] | “+++” (≥50 = +++) | “++” (20%-49% = ++) | – |
| GLLGFQAEA (listed as Homo sapiens) [SEQ ID NO: 24, HLA-A*02 peptide, source gene MAGED1] | “++++” (≥75% = ++++) | “++” (20%-49% = ++) | – |
| KMPEHISTV (listed as Homo sapiens) [SEQ ID NO: 1, HLA-A*02 peptide, source gene CILP] | “+++” (≥50 = +++) | “+” (<20% = +) | – |
| SLADAVEKV (listed as Homo sapiens) [SEQ ID NO: 23, HLA-A*02 peptide, source gene CCDC122] | “+++” (≥50 = +++) | “+++” (50%-69% = +++) | – |
| SLLTEPALV (listed as Homo sapiens) [SEQ ID NO: 21, HLA-A*02 peptide, source gene TBC1D9] | “+++” (≥50 = +++) | “++” (20%-49% = ++) | – |
| TLSSIKVEV (listed as Homo sapiens) [SEQ ID NO: 50, peptide useful for personalized cancer therapies, source gene MXRA5] | – | – | + (<20% = +) |
| YIDGLESRV (listed as Homo sapiens) [SEQ ID NO: 22, HLA-A*02 peptide, source gene CREB3L4] | “+++” (≥50 = +++) | “+” (<20% = +) | – |
